Experimental data published in patent US8802597B2, “Herbicidal pyrimidines” (E I du Pont de Nemours and Company, priority 2003, dated 2014).

Key:
Test in all cases: Test C pre/postemergence
Format in all cases: in vivo
[1] = tested on: Surinam grass (Brachiaria decumbens); conditions: for Plant response rating, Surinam Grass: Preemergence, scale 0 to 100, 0 no effect, 100 complete control
Outline: (§1)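 Greenhouse pot test: seeds treated preemergence, or plants at 2–18 cm (1- to 4-leaf stage) treated postemergence, with compound in non-phytotoxic solvent plus surfactant. Visual rating versus untreated controls after 12–14 days, scale 0 (no effect) to 100 (complete control); dash means not tested.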

[2] = tested on: bermudagrass (Cynodon dactylon); conditions: for Plant response rating (scale of 0 to 100), Bermudagrass / Bermudagrass plant response rating: Postemergence; for Bermudagrass plant response rating: scale 0 to 100 (0 no effect, 100 complete control); for Plant response rating, Bermudagrass: Preemergence
Outline: as §1

[3] = tested on: cocklebur (Xanthium strumarium); conditions: for Plant response rating, Cocklebur: Preemergence
Outline: as §1

[4] = tested on: common (oilseed) sunflower (Helianthus annuus); conditions: Preemergence, scale 0 to 100, 0 no effect, 100 complete control
Outline: as §1

[5] = tested on: common ragweed (Ambrosia elatior); conditions: for Plant response rating, Ragweed: Preemergence, scale 0 to 100, 0 no effect, 100 complete control
Outline: as §1

corn (Zea mays) = conditions: for Plant response rating (scale of 0 to 100), Corn: Postemergence; for Plant response rating, Corn: Preemergence
Outline: as §1

[6] = tested on: eastern black nightshade (Solanum ptycanthum); conditions: Preemergence, scale 0 to 100, 0 no effect, 100 complete control
Outline: as §1

[7] = tested on: johnsongrass (Sorghum halepense); conditions: for Plant response rating, Johnsongrass: Preemergence
Outline: as §1

kochia (Kochia scoparia) = conditions: for Plant response rating, Kochia: Preemergence
Outline: as §1

[8] = tested on: morningglory (Ipomoea coccinea); conditions: for Plant response rating, Morningglory: Preemergence
Outline: as §1

[9] = tested on: pigweed (Amaranthus retroflexus); conditions: for Plant response rating, Pigweed: Preemergence, scale 0 to 100, 0 no effect, 100 complete control
Outline: as §1

[10] = tested on: woolly cupgrass (Eriochloa villosa); conditions: for Plant response rating, Cupgrass, Woolly: Preemergence
Outline: as §1

[11] = Postemergence, 125 g ai/ha, scale 0 to 100 (0 no effect, 100 complete control)
[12] = 16 g ai/ha, scale 0 to 100, 0 no effect, 100 complete control
[13] = 31 g ai/ha, scale 0 to 100, 0 no effect, 100 complete control
[14] = 62 g ai/ha, scale 0 to 100, 0 no effect, 100 complete control

Nc1nc(-c2ccc(Cl)cc2)nc(C(=O)[O-])c1Cl.[Na+] [Compound 117]
Plant response rating (scale of 0 to 100), Surinam Grass ([1]; Postemergence, 16 g ai/ha): 45
Plant response rating (scale of 0 to 100), Surinam Grass ([1]; Postemergence, 31 g ai/ha): 50
Plant response rating (scale of 0 to 100), Surinam Grass ([1]; Postemergence, 62 g ai/ha): 80
Surinam Grass plant response rating [1, 11]: 80
Plant response rating, Surinam Grass ([1]; 16 g ai/ha): 40
Plant response rating, Surinam Grass ([1]; 31 g ai/ha): 40
Plant response rating, Surinam Grass ([1]; 62 g ai/ha): 50
Plant response rating (scale of 0 to 100), Bermudagrass ([2]; 16 g ai/ha): 60
Plant response rating (scale of 0 to 100), Bermudagrass ([2]; 31 g ai/ha): 65
Bermudagrass plant response rating ([2]; 62 g ai/ha): 85
Bermudagrass plant response rating ([2]; 125 g ai/ha): 90
Plant response rating, Bermudagrass [2, 12]: 0
Plant response rating, Bermudagrass [2, 13]: 0
Plant response rating, Bermudagrass [2, 14]: 30
Plant response rating, Bermudagrass ([2]; 125 g ai/ha, scale 0 to 100): 65
Plant response rating (scale of 0 to 100), Cocklebur ([3]; Postemergence, 16 g ai/ha): 90
Plant response rating (scale of 0 to 100), Cocklebur ([3]; Postemergence, 62 g ai/ha): 90
Cocklebur plant response rating [3, 11]: 90
Plant response rating, Cocklebur [3, 12]: 0
Plant response rating, Cocklebur [3, 13]: 0
Plant response rating, Cocklebur [3, 14]: 5
Plant response rating, Cocklebur ([3]; 125 g ai/ha, scale 0 to 100): 90
Plant response rating, Sunflower ([4]; 16 g ai/ha): 0
Plant response rating, Sunflower ([4]; 31 g ai/ha): 50
Plant response rating, Sunflower ([4]; 62 g ai/ha): 90
Plant response rating (scale of 0 to 100), Ragweed ([5]; Postemergence, 16 g ai/ha): 95
Plant response rating (scale of 0 to 100), Ragweed ([5]; Postemergence, 31 g ai/ha): 95
Plant response rating (scale of 0 to 100), Ragweed ([5]; Postemergence, 62 g ai/ha): 100
Ragweed plant response rating [5, 11]: 100
Plant response rating, Ragweed ([5]; 16 g ai/ha): 60
Plant response rating, Ragweed ([5]; 31 g ai/ha): 60
Plant response rating, Ragweed ([5]; 62 g ai/ha): 90
Plant response rating (scale of 0 to 100), Corn (corn (Zea mays); 16 g ai/ha): 30
Plant response rating (scale of 0 to 100), Corn (corn (Zea mays); 31 g ai/ha): 30
Plant response rating, Corn (corn (Zea mays); [12]): 0
Plant response rating, Corn (corn (Zea mays); [13]): 5
Plant response rating, Corn (corn (Zea mays); [14]): 20
Plant response rating, Corn (corn (Zea mays); 125 g ai/ha, scale 0 to 100): 25
Plant response rating, Nightshade ([6]; 16 g ai/ha): 0
Plant response rating, Nightshade ([6]; 31 g ai/ha): 5
Plant response rating, Nightshade ([6]; 62 g ai/ha): 40
Plant response rating (scale of 0 to 100), Johnsongrass ([7]; Postemergence, 16 g ai/ha): 10
Plant response rating (scale of 0 to 100), Johnsongrass ([7]; Postemergence, 31 g ai/ha): 50
Plant response rating (scale of 0 to 100), Johnsongrass ([7]; Postemergence, 62 g ai/ha): 50
Johnsongrass plant response rating [7, 11]: 50
Plant response rating, Johnsongrass [7, 12]: 0
Plant response rating, Johnsongrass [7, 13]: 35
Plant response rating, Johnsongrass [7, 14]: 60
Plant response rating, Johnsongrass ([7]; 125 g ai/ha, scale 0 to 100): 70
Plant response rating (scale of 0 to 100), Kochia (kochia (Kochia scoparia); Postemergence, 16 g ai/ha): 90
Plant response rating (scale of 0 to 100), Kochia (kochia (Kochia scoparia); Postemergence, 31 g ai/ha): 90
Plant response rating (scale of 0 to 100), Kochia (kochia (Kochia scoparia); Postemergence, 62 g ai/ha): 90
Kochia plant response rating (kochia (Kochia scoparia); [11]): 90
Plant response rating, Kochia (kochia (Kochia scoparia); [12]): 0
Plant response rating, Kochia (kochia (Kochia scoparia); [13]): 5
Plant response rating, Kochia (kochia (Kochia scoparia); [14]): 20
Plant response rating, Kochia (kochia (Kochia scoparia); 125 g ai/ha, scale 0 to 100): 60
Plant response rating (scale of 0 to 100), Morningglory ([8]; Postemergence, 16 g ai/ha): 20
Plant response rating (scale of 0 to 100), Morningglory ([8]; Postemergence, 31 g ai/ha): 50
Plant response rating (scale of 0 to 100), Morningglory ([8]; Postemergence, 62 g ai/ha): 50
Morningglory plant response rating [8, 11]: 50
Plant response rating, Morningglory [8, 12]: 0
Plant response rating, Morningglory [8, 13]: 0
Plant response rating, Morningglory [8, 14]: 5
Plant response rating, Morningglory ([8]; 125 g ai/ha, scale 0 to 100): 50
Plant response rating (scale of 0 to 100), Pigweed ([9]; Postemergence, 16 g ai/ha): 90
Plant response rating (scale of 0 to 100), Pigweed ([9]; Postemergence, 31 g ai/ha): 95
Plant response rating (scale of 0 to 100), Pigweed ([9]; Postemergence, 62 g ai/ha): 95
Pigweed plant response rating [9, 11]: 95
Plant response rating, Pigweed ([9]; 16 g ai/ha): 50
Plant response rating, Pigweed ([9]; 31 g ai/ha): 80
Plant response rating, Pigweed ([9]; 62 g ai/ha): 90
Plant response rating (scale of 0 to 100), Cupgrass, Woolly ([10]; Postemergence, 16 g ai/ha): 60
Plant response rating (scale of 0 to 100), Cupgrass, Woolly ([10]; Postemergence, 31 g ai/ha): 80
Plant response rating (scale of 0 to 100), Cupgrass, Woolly ([10]; Postemergence, 62 g ai/ha): 80
Cupgrass, Woolly plant response rating [10, 11]: 85
Plant response rating, Cupgrass, Woolly [10, 12]: 0
Plant response rating, Cupgrass, Woolly [10, 13]: 0
Plant response rating, Cupgrass, Woolly [10, 14]: 15
Plant response rating, Cupgrass, Woolly ([10]; 125 g ai/ha, scale 0 to 100): 50
